Consider one compound from article PMC9122897, “SHR1032, a novel STING agonist, stimulates anti-tumor immunity and directly induces AML apoptosis” (Scientific Reports, 2022).

In one series the test system is human PBMCs. In words: IFNβ ELISA. The note with it: 5 h, vs ADU-S100. The format is cell-based. How it is done: (§1) Figure 2 SHR1032 specifically and potently activates STING signaling pathway. IRF luciferase reporter assays in (a) THP1-STING-R232, THP1-STING-H232, THP1-STING-HAQ, and THP1-STING-KO cells. Cells were stimulated for 24 h with the indicated STING compounds and assessed for luciferase activity. IFNβ production and activation of cGAS-STING signaling pathway in (b) human THP1-STING-R232, human PBMCs from a donor homozygous for the R232 variant, cynomolgus PBMC, and mouse RAW164.7 macrophage cells were treated with STING agonists for 5 h. IFNβ in media was quantified by human or mouse ELISA kits respectively. (c) THP1-STING-R232 cells and mouse RAW164.7 macrophage cells were stimulated with 40 µM of ADU-S100 or 10 µM of SHR1032 for the indicated time points. The amount of pTBK1, total TBK1, STING and α-tubulin was measured by western blotting.
(§2) Human and Cynomolgous PBMC’s were thawed and spun down in Lymphocyte media (ZENBIO) and resuspended in media to 1.5 x 10^6 cells/ml density. […] Human and monkey IFN-β protein concentration was measured using human IFN-β Quantikine ELISA Kits (R&D Systems) per manufacture’s protocol. Mouse IFN-β was measured using mouse IFN-β Quantikine ELISA Kits (R&D Systems) per manufacture’s protocol. Mouse TNFα, IFN-β and IL-6 in the tumor lysates and plasma was measured by Quantikine ELISA Kits (R&D Systems) per manufacture’s protocol.
In general terms: ELISA stands for enzyme-linked immunosorbent assay.

Series [1] deals with mouse RAW164.7 macrophage cells. In words: IFNβ ELISA. As to conditions: 5 h, vs ADU-S100. In kind it is cell-based. How it is done:
as §1, §2

Series [2] concerns MC38 mouse syngeneic colorectal adenocarcinoma. In words: MC38 syngeneic tumor model. In kind it is in vivo, C57BL/6 mouse. How it is done: Figure 3 Robust cytokine induction and antitumor effects in vivo. (a,b) C57BL/6 mice were inoculated with mouse MC38 colon cancer cells in the left flank. When tumor volumes were 100 mm^3, they received intratumoral (IT) dose of 100 µg of SHR1032 on day 1, 5, 8 and 12 or IT dose of 50 µg ADU-S100 on day 1, 5, and 8, or vehicle, respectively. (a) Tumor volume was measured at different time points. Results are shown as mean tumor volume ± sem. (n = 8 animals per group). (b) Mouse bodyweight was measured at different time points. (c–f) C57BL/6 mice were inoculated with mouse MC38 colon cancer cells in the left flank. When tumor volumes were 100 mm^3, they received one IT dose of 100 µg of SHR1032 or 50 µg ADU-S100, or vehicle. (c) IFNβ, (d) IL-6 and (e) TNFα from both tumor and plasma was measured by ELISA 4 h after. (f) SHR1032 compound concentration in tumors were measured.
Human and Cynomolgous PBMC’s were thawed and spun down in Lymphocyte media (ZENBIO) and resuspended in media to 1.5 x 10^6 cells/ml density. Mouse RAW 264.7 cells were detached from the flask and resuspended in media to 1.5 x 10^6 cells/ml density. Then, 100 µl of media containing the cells was added to each well of a 96-well plate containing compound in 50 µl of media. Plates were incubated for 5 h at 37 °C and supernatant was collected for ELISA analysis. Human and monkey IFN-β protein concentration was measured using human IFN-β Quantikine ELISA Kits (R&D Systems) per manufacture’s protocol. Mouse IFN-β was measured using mouse IFN-β Quantikine ELISA Kits (R&D Systems) per manufacture’s protocol. Mouse TNFα, IFN-β and IL-6 in the tumor lysates and plasma was measured by Quantikine ELISA Kits (R&D Systems) per manufacture’s protocol.
Female C57BL/6 mice, aged between 8 and 10 weeks old, were purchased from Charles River Lab. MC38 mouse colorectal cancer cells were resuspended as single cell solution in PBS at a concentration of 5 × 10^6 cells/ml. One hundred µl of cell suspension were implanted in the right flank of mice subcutaneously. Tumor size was measured by a caliper in three dimensions and its volume was then calculated according to the following formula: Tumor Volume (mm^3) = l * w * h * 0.5236, where l = length, w = width and h = height in mm for a tumor. When the average tumor volume reached around 100 mm^3, the mice were randomly assigned into three groups (n = 8) and each group of mice received one regimen. This day was assigned as day 0 for the study. […] Tumor volume and body weight were measured 3 times per week throughout the study. […] Cytokines and SHR1032 concentration in the plasma and tumor tissues were analyzed. […]

For series [3], the system named is THP1-IFNAR2-WT and THP1-IFNAR2-KO cells. In words: Cell TiterGlo cell viability, IFNAR2 WT versus KO. As to conditions: THP1-IFNAR2-WT vs -KO. In kind it is cell-based, human. Here is the method: Figure 5 Cell apoptosis induced by SHR1032 in AML cell lines is independent of type I interferon. (a–d) RNA-Seq analysis of THP1-STING-R232, THP1-STING-KO and MV4-11 AML cells treated with 1 µM of SHR1032 for 4 h. […] (d) ANNEXIN V staining analysis with flow cytometry in MV4-11, MOLM-16, THP1-STING-WT and THP1-STING-KO cells. (e) Cell viability analysis by CellTiter Glo in THP1-IRFAR2-WT or -KO cells.
Type I interferons have been known to drive apoptosis in AML cells. Therefore, the apoptotic effects might be caused by type I interferons generated by STING activation. To address this question, we examined the IFNβ production with ELISA in MV4-11 and MOLM-16 cells stimulated with SHR1032. […] The activity of type I IFNs is mediated by the IFN-α receptor (IFNAR), which consists of two chains: IFNAR1 and IFNAR2. Knockout of the IFNAR2 gene abolishes the cellular response to type I IFNs.
THP1 reporter cells were treated for 24 h with a total of 100 k cells and 150 ul media in each well a 96-well plate. […] Luminescence signal was measured using Tecan infinite M1000. EC50 values were calculated using non-linear regression analysis of GraphPad Prism. Cell growth was monitored by CellTiter-Glo Luminescent Cell Viability Assay (Promega) per manufacture’s protocol. GI50 values were calculated using non-linear regression analysis of GraphPad Prism. […]
A general note: ATP-based viability assays read luminescence as a measure of living cells.

Take `CCn1nc(C)cc1C(=O)Nc1nc2cc(C(N)=O)cc(OC)c2n1CCC[C@H]1COc2cc(C(N)=O)cc3nc(NC(=O)c4cc(C)nn4CC)n1c23` [SHR1032]: the “human IFNβ production” value in the series with human PBMCs is “much greater amount of human IFNβ than ADU-S100”. The “mouse IFNβ production” value in series [1] is “lower than that with that of ADU-S100, but still detectable”. The tumor growth inhibition in series [2] (100 µg intratumorally on day 1, 5, 8 and 12, compared to the control group) was found to be 78%. The mouse pharmacokinetic properties entry in series [2] (intratumoral, mouse) is listed as “favorable mouse pharmacokinetic properties”. Besides, in series [2] (one IT dose of 100 µg, 4 h post dosing, ELISA), the “IFNβ, IL-6 and TNFα induction in tumor and plasma” value is “induced all the three cytokines in both tumors and plasma”. Also, the “effect of IFNA receptor deletion on induced cell death” value in series [3] was “no effect on cell death induced by SHR1032”.
